The nature of data set [1]: Hygroscopicity test according to the Pharmacopoeia of the People's Republic of China. It is filed as physicochemical. Conditions: 48 h, 25° C., relative humidity 75%; monohydrate. The method, then:
(§1) The sample of the puerarin hydrate above (prepared by method of Example 1) and anhydrous puerarin (anhydrous puerarin was prepared by: drying the hydrate as prepared in Example 1 at 90-105° C. in the presence of phosphorus pentoxide under vacuum for 24-72 hours or more to obtain an anhydrous puerarin, and the water content of anhydrous puerarin was usually lower than 1.0% as measured by Karl Fisher method) were sealed in penicillin bottles to perform accelerated stability test (chromatography conditions: chromatography column: C18 (150 mm×4.6 mm, 5 μm); mobile phase: 0.1% citric acid solution-methanol (75:25); flow rate: 1 ml/min; temperature: room temperature; detection wavelength: 250 nm). […] Hygroscopicity test was performed according to the Pharmacopoeia of the People's Republic of China: about 5 g of anhydrous puerarin and the crystalline hydrate of the present invention were taken, placed in dry watch glasses with constant weight, weighed precisely. Samples were taken separately at 0 h and 48 h of the test at 25° C. and relative humidity of 75%, and hygroscopicity weight gain percentages were calculated.

The test system of data set [2] is chronic ocular hypertension. Briefly: Effects on chronic ocular hypertension of rabbits (dexamethasone model). It is filed as in vivo. Conditions: within 24 hours, puerarin hydrate 1% (W/V), betaxolol 0.5% (W/V), monohydrate. As for the experimental part: Chronic Ocular Hypertension Models: 32 rabbits, half male and half female, were subjected to sub-conjunctive injection with 0.5 mg of dexamethasone under corneal limbus, once every other day, for consecutive 3 weeks, to obtain chronic ocular hypertension models, then randomly divided into physiological saline group, betaxolol group [0.5% (W/V)], puerarin hydrate group [1% (W/V)]. The maximum decrease of intraocular pressure was measured within 24 hours.

Another data set deals with T1, ACE (Rattus norvegicus, UniProt P47820).
T1 construct: from tissue; host or cells: blood serum of Wistar rats
T1 sequence (P47820 36-1313): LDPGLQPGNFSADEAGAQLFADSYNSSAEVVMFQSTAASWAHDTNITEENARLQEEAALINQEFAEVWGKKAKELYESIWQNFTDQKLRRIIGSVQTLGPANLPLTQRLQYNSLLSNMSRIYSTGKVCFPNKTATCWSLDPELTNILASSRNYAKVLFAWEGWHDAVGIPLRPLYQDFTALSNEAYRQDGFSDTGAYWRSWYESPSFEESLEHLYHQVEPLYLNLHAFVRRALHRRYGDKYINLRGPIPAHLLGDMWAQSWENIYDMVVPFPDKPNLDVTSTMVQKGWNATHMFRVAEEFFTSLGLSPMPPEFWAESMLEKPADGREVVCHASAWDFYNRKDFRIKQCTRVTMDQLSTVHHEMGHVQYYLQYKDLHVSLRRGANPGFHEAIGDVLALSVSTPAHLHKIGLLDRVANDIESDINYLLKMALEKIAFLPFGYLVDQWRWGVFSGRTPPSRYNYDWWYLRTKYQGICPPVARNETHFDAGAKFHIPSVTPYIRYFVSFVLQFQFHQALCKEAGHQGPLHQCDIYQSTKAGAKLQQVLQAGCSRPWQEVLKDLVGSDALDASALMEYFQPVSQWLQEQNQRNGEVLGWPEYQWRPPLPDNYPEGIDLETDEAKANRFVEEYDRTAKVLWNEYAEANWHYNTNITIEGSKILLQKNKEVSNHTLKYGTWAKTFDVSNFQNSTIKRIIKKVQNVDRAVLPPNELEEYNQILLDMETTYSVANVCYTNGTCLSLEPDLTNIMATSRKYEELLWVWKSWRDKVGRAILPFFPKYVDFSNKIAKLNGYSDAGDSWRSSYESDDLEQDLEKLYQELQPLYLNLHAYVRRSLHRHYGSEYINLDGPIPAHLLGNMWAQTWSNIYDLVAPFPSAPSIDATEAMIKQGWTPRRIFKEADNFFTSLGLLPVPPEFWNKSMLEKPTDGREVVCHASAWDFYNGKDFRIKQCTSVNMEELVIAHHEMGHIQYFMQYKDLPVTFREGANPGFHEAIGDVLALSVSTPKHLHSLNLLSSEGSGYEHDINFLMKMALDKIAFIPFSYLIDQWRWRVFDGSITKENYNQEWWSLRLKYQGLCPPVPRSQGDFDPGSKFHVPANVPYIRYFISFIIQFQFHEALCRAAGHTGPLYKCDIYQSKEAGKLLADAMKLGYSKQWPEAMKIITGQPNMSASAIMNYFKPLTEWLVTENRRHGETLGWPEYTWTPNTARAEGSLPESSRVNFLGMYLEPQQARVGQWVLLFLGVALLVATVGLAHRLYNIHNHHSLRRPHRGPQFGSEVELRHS
Put plainly: Effects on inhibiting ACE activity (rat blood serum after intraperitoneal injection). It is filed as in vivo, Wistar rats. The method, then: 24 Wistar rats, 280-300 g, were randomly divided into 3 groups, 8 rats per group, one group was control group, other two groups were separately 100 mg/kg, 200 mg/kg dose groups (which was added with cosolvent to form an injectable solution), subjected to intraperitoneal injection, the control group was administered with physiological saline. 60 min after administration, the rats were anesthetized with 1% pentobarbital sodium, subjected to thoracotomy and blood sample was taken from heart, the blood sample stood at room temperature for 30 min, centrifuged under 3500 r/min at low temperature for 10 min, the supernatant was taken and stored at about −65° C., for test. Measurement of ACE activity: referring to document [WANG, Fumin, et al, Chinese Journal of Laboratory Medicine, 1983, 6(3):145-151], the results were subjected to statistical treatment: the results were expressed in x±S, and data were subjected to analysis of variance and t-test.

A short description of data set [3]: Accelerated stability test (40° C., RH75%), sealed in penicillin bottles. It is filed as physicochemical. The settings on record: accelerated, 40° C. As for the experimental part: as §1

As to `O=c1c(-c2ccc(O)cc2)coc2c([C@@H]3O[C@H](CO)[C@@H](O)[C@H](O)[C@H]3O)c(O)ccc12` [Sample 1, puerarin monohydrate], the “In comparison with 0 h, weight gain, %” value in data set [1] is recorded as 0.12%. In data set [2], the “Maximum decrease of intraocular pressure (mmHg)” value is on record as 2.6 mmHg. Further, the “rat blood serum ACE activity compared with the control group” value at ACE (100 and 200 mg/kg intraperitoneal, P<0.01) was “dose-dependent decrease”. In addition, the inhibition at 100 mg/kg on ACE (rat, ip, rats, 100 mg/kg intraperitoneal, vs control group, read-out: inhibition rate (%)) was found to be 36.1%. The “ACE (IU)” value at ACE (rats, 100 mg/kg intraperitoneal, blood taken 60 min after administration) was 34.8 ± 6.19 IU. Moreover, the “Marked content (%)” value in data set [3] (sampling time 0 month) turned out to be 99.5%; in data set [3] (sampling time 1 month), 99.3%; in data set [3] (sampling time 2 month), 99.6%; in data set [3] (sampling time 3 month), 99.4%; in data set [3] (sampling time 6 month) it was 99.3%. Further, the Property result in data set [3] (sampling time 0 month), in data set [3] (sampling time 1 month), in data set [3] (sampling time 2 month), in data set [3] (sampling time 3 month) and in data set [3] (sampling time 6 month) was “off-white powder” each time. The “Related substance (%)” value in data set [3] (sampling time 0 month), in data set [3] (sampling time 1 month), in data set [3] (sampling time 2 month), in data set [3] (sampling time 3 month) and in data set [3] (sampling time 6 month) was under 2% in each case.

A word on the inhibition: it is how much of the control response was suppressed.

The record behind these values is patent US20130331345A1, “PUERARIN HYDRATES, PREPARATION METHODS AND USES THEREOF” (priority 2010, published 2013).
